Two compounds from PMC9814779, “A triple farnesoid X receptor and peroxisome proliferator-activated receptor α/δ activator reverses hepatic fibrosis in diet-induced NASH in mice” (Communications Chemistry, 2020) can be followed below.

For orientation: EC50 means the midpoint of the concentration-response curve.

In data set [1] the test system is FXR- and PPAR-regulated gene expression in HepG2 cells. The data set is described as follows: FXR- and PPAR-regulated gene expression in HepG2 cells (qRT-PCR). The format is cell-based, human. As to conditions: 12 h. As to the method:
HepG2 cells (DSMZ) were grown in DMEM high glucose, supplemented with 10% FCS, 1 mM SP, penicillin (100 U/mL), and streptomycin (100 μg/mL) at 37 °C and 5% CO2 and seeded in 6-well plates (2 × 10^6 per well). After 24 h, medium was changed to Minimal Essential Medium supplemented with 1% charcoal-stripped FCS, penicillin (100 U/mL), streptomycin (100 μg/mL), and 2 mM L-glutamine. After an additional 24 h, cells were incubated with test compound 41 (0.1 µM, 0.3 µM, 1 μM), OCA (1 μM), or elafibranor (1 µM) dissolved in the same medium with 0.1% DMSO or medium with 0.1% DMSO alone as untreated control for 12 h, harvested, washed with cold phosphate-buffered saline (PBS), and then directly used for RNA extraction. C2C12 cells (American Type Culture Collection, ATCC) were grown in DMEM high glucose, supplemented with 10% FCS, 1 mM SP, penicillin (100 U/mL), and streptomycin (100 μg/mL) at 37 °C and 5% CO2 and seeded in 6-well plates (1 × 10^6 per well). Upon reaching confluence, medium was changed to Eagle’s Minimal Essential Medium supplemented with 2% horse serum, penicillin (100 U/mL), streptomycin (100 μg/mL), and 2 mM L-glutamine. Cells were then differentiated in this medium for 5 days before incubation with test compounds 41 (1 μM) or L165,041 (1 μM) dissolved in the same medium with 0.1% DMSO or medium with 0.1% DMSO alone as untreated control for 8 h. Cells were harvested, washed with cold PBS, and then directly used for RNA extraction. Total RNA was extracted from HepG2 cells or C2C12 cells using the total RNA Mini Kit (R6834-02, Omega Bio-Tek, Inc., Norcross, GA, USA). Two micrograms of extracted RNA were then reverse-transcribed into cDNA with the High-Capacity cDNA Reverse Transcription Kit (4368814, Thermo Fischer Scientific, Inc.). FXR- and PPAR-regulated gene expression was then studied by quantitative real-time PCR (qRT-PCR) analysis with a StepOnePlus System (Life Technologies, Carlsbad, CA, USA) using PowerSYBRGreen (Life Technologies; 12.5 μL per well). Each sample was set up in duplicates and repeated in four independent experiments. Data were analyzed by the comparative ΔΔCT method with glyceraldehyde 3-phosphate dehydrogenase (GAPDH) as reference gene. The following primers were used for HepG2 cells (human genes): hGAPDH: 5 ′-ATATGATTCCACCCATGGCA (fw), 5′-GATGATGACCCTTTTGGCTC (rev); hSHP: 5′-GCTGTCTGGAGTCCTTCTGG (fw), 5′-CCAATGATAGGGCGAAAGAAGAG (rev); hCYP7A1: 5′-CACCTTGAGGACGGTTCCTA (fw), 5′-CGATCCAAAGGGCATGTAGT (rev); hBSEP: 5′-CATGGTGCAAGAAGTGCTGAGT (fw), 5′-AAGCGATGAGCAACTGAAATGAT (rev); hACOX: 5′-ACT CGC AGC CAG CGT TAT G (fw), 5′-AGG GTC AGC GAT GCC AAA C (rev); hPDK4: 5′-AGAGCCTGATGGATTTGGTG (fw), 5′-GCTTGGGTTTCCTGTCTGTG (rev); hCPT1: 5′-ACAGTCGGTGAGGCCTCTTAT (fw), 5′-TCTTGCTGCCTGAATGTGAGT (rev); hFGF21: 5′-ATGGATCGCTCCACTTTGACC (fw), 5′-GGGCTTCGGACTGGTAAACAT (rev). The following primers were used for C2C12 cells (murine genes)[36]: mGAPDH: 5′-CGACTTCAACAGCAACTCCCACTCTTCC (fw), 5′-TGGGTGGTCCAGGGTTTCTTACTCCTT (rev); mPCK: 5′-TGTTTACTGGGAAGGCATCG (fw), 5′-CAGAATCTCGAGTTGGGATGG (rev); mGLUT3: 5′-CGTCCTTGAAGATTCCTGTTGA (fw), 5′-GTC ACC CAA CTA CGT CCA G (rev); mLPL: 5′-GTCAGGTTCTCTCTTGTACAGG (fw), 5′-TCTAACTGCCACTTCAACCAC (rev).
Background: Quantitative PCR measures a nucleic acid by following its amplification.

Data set [2] deals with T1, human PPARγ ligand-binding domain (Gal4 chimera) (Homo sapiens, UniProt P37231).
T1 construct: coding for the hinge region and LBD of the canonical isoform of the respective nuclear receptor; expressed in transfected cells; host or cells: HEK293T
T1 sequence (P37231 238-503 limits assumed): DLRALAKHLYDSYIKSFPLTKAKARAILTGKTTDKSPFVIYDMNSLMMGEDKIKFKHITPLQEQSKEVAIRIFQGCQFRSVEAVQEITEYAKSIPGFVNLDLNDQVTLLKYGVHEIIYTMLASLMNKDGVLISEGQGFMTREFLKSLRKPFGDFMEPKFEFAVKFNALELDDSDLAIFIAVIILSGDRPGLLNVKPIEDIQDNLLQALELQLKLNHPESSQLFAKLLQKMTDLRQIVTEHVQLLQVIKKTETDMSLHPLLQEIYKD
The data set is described as follows: Gal4 hybrid reporter gene assay, PPARγ. The format is cell-based. Also on record: Emax: dose or concentration left out as unconfirmed.

Where [3] appears, read: HepG2, 1 µM, vs. vehicle-treated cells.

For the compound `CC[C@H]1[C@@H](O)[C@@H]2[C@H](CC[C@]3(C)[C@@H]([C@H](C)CCC(=O)O)CC[C@@H]23)[C@@]2(C)CC[C@@H](O)C[C@@H]12` [OCA, 6α-ethylchenodeoxycholic acid, reference compound], in data set [1] (setting [3]), the “mRNA expression of FXR-regulated genes (BSEP, SHP, CYP7A1)” value is “upregulation of BSEP and small heterodimer partner (SHP) mRNA as well as downregulation of CYP7A1”; the “mRNA expression of PPAR-regulated genes (ACOX, PDK4, CPT1, FGF21)” value was “slightly induced ACOX and FGF21 expression”.

On to `CC(C)(C)c1ccc(C(=O)Nc2cccc(CCC(=O)O)c2)c(NC(=O)c2ccc(-c3ccco3)cc2)c1` [compound 41, 3-(3-[4-{tert-Butyl}-2-{4-(2-furyl)}benzamido]phenyl)propanoic acid], for which a half-maximal effect in data set [2] (EC50) was put at 2.4 ± 0.1 µM. Also, the Emax in data set [2] (read-out: max. rel. act. PPARγ) was 16%. In addition, in data set [1] (HepG2, 0.1 µM, 0.3 µM, 1 μM), the “dose dependence of BSEP, PDK4 and CPT1 expression” value is listed as “dose-dependent effects”. In data set [1] (setting [3]), the “mRNA expression of FXR-regulated genes (BSEP, SHP, CYP7A1)” value was “upregulation of BSEP and small heterodimer partner (SHP) mRNA as well as downregulation of CYP7A1”.
